Experimental data from paper PMC6983109, “Efficient Synthesis of Purine Nucleoside Analogs by a New Trimeric Purine Nucleoside Phosphorylase from Aneurinibacillus migulanus AM007” (Molecules, 2019).

Assays:
[1] = target: T1, AmPNP (Aneurinibacillus migulanus, UniProt A0A3G5E8S8); assay: phosphorolysis, HPLC; format: biochemical; settings: 10 mM sodium phosphate buffer pH 8.0 (phosphate co-substrate), 50 °C, 0.5–5 mM substrate
T1 construct: full-length ORF 813 bp, 270 residues; N-terminal 6*His tag (pET-28a(+), Nhe I/BamH I), E. coli BL21(DE3), Ni2+ purified; subunit ~29 kDa, native ~87 kDa, trimer
Description: phosphorolysis, HPLC on AmPNP

[2] = target: purine nucleoside phosphorylase from Aneurinibacillus migulanus AM007 (Aneurinibacillus migulanus AM007); assay: SEC; Superdex 200 Increase 10/300 GL on an AKTA pure system, against standard proteins; 0.01 M phosphate buffer, 0.14 M NaCl, pH 8.0; AmPNP at 2 mg/mL; 0.3 mL/min; native mass about 87 kDa compared with about 29 kDa subunit on SDS-PAGE

Row | Molecule | Km [1] [µM] | stoichiometry N [2]
1 | OC[C@H]1O[C@@H](n2cnc3c(O)ncnc32)[C@H](O)[C@@H]1O [Inosine] | 5300 | –
2 | purine nucleoside phosphorylase from Aneurinibacillus migulanus AM007 (enzyme) | – | 3
3 | Nc1ncnc2c1ncn2[C@@H]1O[C@H](CO)[C@@H](O)[C@H]1O [Adenosine] | 1450 | –
4 | Nc1nc2c(ncn2[C@@H]2O[C@H](CO)[C@@H](O)[C@H]2O)c(=O)[nH]1 [Guanosine] | 1160 | –
